13 compounds from patent publication US12030903B2, “Antiviral compounds” (Gilead Sciences, Inc., priority 2020, dated 2024) can be followed below.

A word on the CC50: it is the concentration at which the toxic effect on the cells reaches its halfway point. Read a low CC50 as greater toxicity to the cells. The term EC50 denotes the concentration giving half of the maximal effect.

Data set [1] in a line: Huh-7 CC50 (CellTiter Glo viability). It counts as cell-based, Human. Conditions: human, Huh7 hepatocarcinoma cells. The procedure: Human hepatocarcinoma 7 (Huh7) cells were maintained in 10% FCS-containing complete DMEM. On day of assay, cells were trypsinized with 0.1% Trypsin-EDTA, washed and cultured in triplicate at 1-2×10^4 cells/well in 96-well plates with compounds dispensed at graded doses (Hewlett-Packard D300 Digital Dispenser). All wells were normalized to 0.25% DMSO. After 48 hours, CellTiter Glo (Promega) was added and incubated for 10 minutes at room temp before reading on a luminometer. % viability curves were calculated against no compound and no cell control wells. CC50 values were determined using Prism Graphpad software.
(ATP-based viability assays read luminescence as a measure of living cells.)

Data set [2] has as its system Dengue serotype 2 New Guinea C (NGC) strain. In words: DENV-2 Huh-7 EC50 (qPCR of viral RNA in infected Huh7 cells). It counts as cell-based. Conditions: Dengue virus, DENV2, Huh-7, Huh7 cells infected with Dengue serotype 2 NGC, MOI=0.1, 48 hours. As to the method: Huh7 (Human hepatocarcinoma 7) cells were maintained in 10% FCS-containing DMEM complete media. On the day of the assay, cells were trypsinized (0.1% Trypsin-EDTA), washed and infected for 2 hours in serum-free DMEM with Dengue serotype 2 New Guinea C (NGC) strain at MOI=0.1 with gentle agitation at 37° C. After 2 hours, cells were washed with serum-free media and suspended in 10% FCS-containing DMEM (Gibco, supplemented with sodium pyruvate, NEAA, Penicillin-Streptomycin). 10^5 cells were plated in triplicate in 96-well plates with compounds dispensed at graded doses (Hewlett-Packard D300 Digital Dispenser). All wells were normalized to 0.25% DMSO. At 48 hours, cells were washed with 1× PBS and all supernatants removed. Total RNA was extracted using RNEasy 96 plates (Qiagen) and used to generate first-strand cDNA using XLT cDNA 5× Supermix (QuantaBio). cDNA was used as a template in a Taqman qPCR duplex reaction specific to DENV2 viral and GAPDH gene expression. EC50 values were determined using Prism Graphpad software, with normalization to a positive control and no compound negative control wells.

A short description of data set [3]: HEp-2 CC50 (cytotoxicity in uninfected HEp-2 cells). Format: cell-based. Particulars: human, CellTiter Glo. The procedure:
Instead, an uninfected cell mixture at the same density is added at 20 uL/well to plates containing prediluted compounds, also at 100 nL/sample. Assay plates are then incubated for 4 days followed by a cell viability test using the same CellTiter Glo reagent addition and measurement of luminescent readouts. Untreated cell and cells treated at 2 μM puromycin (Sigma, St. Louis, MO) serve as 100% and 0% cell viability control, respectively.

The test system of another data set is RSV strain A2. In words: RSV HEp-2 EC50 (infectious cytopathic cell protection assay). It counts as cell-based, RSV strain A2; HEp-2 cells. Particulars: human respiratory syncytial virus, HEp-2, 96 h, read-out: RSV Hep-2 EC50. As to the method: Example 86. RSV HEp-2 EC50
Antiviral activity against RSV is determined using an infectious cytopathic cell protection assay in HEp-2 cells. In this assay, compounds inhibiting viral infection and/or replication produce a cytoprotective effect against the virus-induced cell killing that can be quantified using a cell viability reagent. The techniques used here are novel adaptations of methods described in published literature (Chapman et al., Antimicrob Agents Chemother. 2007, 51(9):3346-53.)
HEp-2 cells are obtained from ATCC (Manassas, VI) and maintained in MEM media supplemented with 10% fetal bovine serum and penicillin/streptomycin. Cells are passaged twice a week and kept at subconfluent stage. Commercial stock of RSV strain A2 (Advanced Biotechnologies, Columbia, MD) is titered before compound testing to determine the appropriate dilution of the virus stock that generates desirable cytopathic effect in HEp-2 cells.
For antiviral tests, HEp-2 cells are grown in large cell culture flasks to near confluency but not fully so. The compounds to be tested are prediluted in DMSO in 384-well compound dilution plates, either in an 8 or 40 sample per plate standardized dose response format. 3-fold serial dilution increments of each test compound are prepared in the plates and test samples are transferred via acoustic transfer apparatus (Echo, Labcyte) at 100 nL per well into cell culture assay 384-well plates. Each compound dilution is transferred in single or quadruplicate samples into dry assay plates, which are stored until assay is ready to go. The positive and negative controls are laid out in opposite on ends of the plate in vertical blocks (1 column).
Subsequently, an infectious mixture is prepared using an appropriate dilution of virus stock previously determined by titration with cells at a density of 50,000/mL and 20 uL/well is added to test plates w/compounds via automation (uFlow, Biotek). Each plate includes negative and positive controls (16 replicates each) to create 0% and 100% virus inhibition standards, respectively. Following the infection with RSV, testing plates are incubated for 4 days in a 37° C. cell culture incubator. After the incubation, a cell viability reagent, Cell TiterGlo (Promega, Madison, WI) is added to the assay plates, which are incubated briefly, and a luminescent readout is measured (Envision, Perkin Elmer) in all the assay plates. The RSV-induced cytopathic effect, percentage inhibition, is determined from the levels of remaining cell viability. […] Various potent anti-RSV tool compounds are used as positive controls for antiviral activity.
In general terms: Cytopathic effects are the visible damage that an infection or toxin causes in cultured cells.

Compound `CCC(CC)COC(=O)[C@H](C)N[P@](=O)(OC[C@@]1(CF)O[C@@H](c2ccc3c(N)ncnn23)[C@H](OC(C)=O)[C@@H]1OC(C)=O)Oc1ccccc1` [Example 60, (2R,3S,4S,5S)-5-(4-aminopyrrolo[2,1-f][1,2,4]triazin-7-yl)-2-((((S)-(((S)-1-(2-ethylbutoxy)-1-oxopropan-2-yl)amino)(Phenoxy)phosphoryl)oxy)methyl)-2-(fluoromethyl)tetrahydrofuran-3,4-diyl diacetate] returned a CC50 at 48 h in data set [1] above 24.8 µM. Besides, the EC50 came to 1.21 µM in data set [2] and 1.1 µM in the data set with RSV strain A2. The compound also had a half-maximal cytotoxic concentration (CC50) at 4 days in data set [3] of 36.2 µM.

`CCC(CC)COC(=O)[C@H](C)NP(=O)(OC[C@@]1(CCl)O[C@@H](c2ccc3c(N)ncnn23)[C@H](O)[C@@H]1O)Oc1ccccc1` (stereo partly drawn) [Comp. Ex. 1, 2-ethylbutyl ((((2R,3S,4R,5S)-5-(4-aminopyrrolo[2,1-f][1,2,4]triazin-7-yl)-2-(chloromethyl)-3,4-dihydroxytetrahydrofuran-2-yl)methoxy)(phenoxy)phosphoryl)-L-alaninate, reference compound] gave an EC50 in data set [2] of 2.33 µM.

`CO[C@@H](C)COC(=O)[C@H](C)NP(=O)(OC[C@@]1(CF)O[C@@H](c2ccc3c(N)ncnn23)[C@H](O)[C@@H]1O)Oc1ccccc1` (stereo partly drawn) [Example 30, (S)-2-methoxypropyl ((((2R,3S,4R,5S)-5-(4-aminopyrrolo[2,1-f][1,2,4]triazin-7-yl)-2-(fluoromethyl)-3,4-dihydroxytetrahydrofuran-2-yl)methoxy)(phenoxy)phosphoryl)-L-alaninate] came in with a CC50 at 4 days in data set [3] above 100 µM. For the same compound, in the data set on RSV strain A2, the EC50 was 4.13 µM.

In turn, `C[C@H](NP(=O)(OC[C@@]1(CF)O[C@@H](c2ccc3c(N)ncnn23)[C@H](O)[C@@H]1O)Oc1ccccc1)C(=O)OC1CCOCC1` (stereo partly drawn) [Example 64, tetrahydro-2H-pyran-4-yl ((((2R,3S,4R,5S)-5-(4-aminopyrrolo[2,1-f][1,2,4]triazin-7-yl)-2-(fluoromethyl)-3,4-dihydroxytetrahydrofuran-2-yl)methoxy)(phenoxy)phosphoryl)-L-alaninate] showed a cytotoxic concentration (CC50) at 48 h in data set [1] above 25 µM. For the same compound, in data set [2], it took 2 µM to reach a half-maximal effect (EC50).

Regarding `CCC(CC)COC(=O)[C@H](C)N[P@](=O)(OC[C@@]1(CF)O[C@@H](c2ccc3c(NC(=O)c4ccccc4)ncnn23)[C@H](O)[C@@H]1O)Oc1ccccc1` [Example 75, 2-ethylbutyl ((S)-(((2R,3S,4R,5S)-5-(4-benzamidopyrrolo[2,1-f][1,2,4]triazin-7-yl)-2-(fluoromethyl)-3,4-dihydroxytetrahydrofuran-2-yl)methoxy)(phenoxy)phosphoryl)-L-alaninate], the concentration giving a half-maximal response (EC50) in data set [2] was determined as 0.175 µM.

Take `C[C@H](NP(=O)(OC[C@@]1(CF)O[C@@H](c2ccc3c(N)ncnn23)[C@H](O)[C@@H]1O)Oc1ccccc1)C(=O)OCC(C)(C)O` (stereo partly drawn) [Example 26, 2-hydroxy-2-methylpropyl ((((2R,3S,4R,5S)-5-(4-aminopyrrolo[2,1-f][1,2,4]triazin-7-yl)-2-(fluoromethyl)-3,4-dihydroxytetrahydrofuran-2-yl)methoxy)(phenoxy)phosphoryl)-L-alaninate]: the CC50 at 48 h in data set [1] is above 25 µM. In addition, the figures for the concentration for a half-maximal effect (EC50) (in data set [2]; in the data set on RSV strain A2) were above 24 µM and 39.3 µM, respectively. The compound also registered a CC50 at 4 days in data set [3] above 100 µM.

Regarding `CO[C@H](C)COC(=O)[C@H](C)NP(=O)(OC[C@@]1(CF)O[C@@H](c2ccc3c(N)ncnn23)[C@H](O)[C@@H]1O)Oc1ccccc1` (stereo partly drawn) [Example 39, (R)-2-methoxypropyl ((((2R,3S,4R,5S)-5-(4-aminopyrrolo[2,1-f][1,2,4]triazin-7-yl)-2-(fluoromethyl)-3,4-dihydroxytetrahydrofuran-2-yl)methoxy)(phenoxy)phosphoryl)-L-alaninate], the cytotoxic concentration (CC50) at 4 days in data set [3] is above 100 µM. Further, the EC50 in the data set on RSV strain A2 came out at 2.47 µM.

In data set [1], `C[C@H](N[P@](=O)(OC[C@@]1(CF)O[C@@H](c2ccc3c(N)ncnn23)[C@H](O)[C@@H]1O)Oc1ccccc1)C(=O)OC1COC1` [Example 72, oxetan-3-yl ((S)-(((2R,3S,4R,5S)-5-(4-aminopyrrolo[2,1-f][1,2,4]triazin-7-yl)-2-(fluoromethyl)-3,4-dihydroxytetrahydrofuran-2-yl)methoxy)(phenoxy)phosphoryl)-L-alaninate] returned a half-maximal cytotoxic concentration (CC50) at 48 h above 25 µM. Further, the results for the EC50 (in data set [2]; in the data set with RSV strain A2) were 12.4 µM and 15.6 µM, respectively. Besides, the 50% cytotoxic concentration (CC50) at 4 days in data set [3] is above 50 µM.

In data set [1], `CCCCCCOC(=O)[C@H](C)NP(=O)(OC[C@@]1(CF)O[C@@H](c2ccc3c(N)ncnn23)[C@H](O)[C@@H]1O)Oc1ccccc1` (stereo partly drawn) [Example 17, hexyl ((((2R,3S,4R,5S)-5-(4-aminopyrrolo[2,1-f][1,2,4]triazin-7-yl)-2-(fluoromethyl)-3,4-dihydroxytetrahydrofuran-2-yl)methoxy)(phenoxy)phosphoryl)-L-alaninate] yielded a 50% cytotoxic concentration (CC50) at 48 h above 25 µM. The 50% effective concentration (EC50) in data set [2] was determined as 0.51 µM; in the data set on RSV strain A2, 0.516 µM. The compound also displayed a CC50 at 4 days in data set [3] above 100 µM.

In data set [1], `CCC(=O)O[C@H]1[C@H](c2ccc3c(N)ncnn23)O[C@](CF)(CO[P@@](=O)(N[C@@H](C)C(=O)OCC(CC)CC)Oc2ccccc2)[C@H]1OC(=O)CC` (single isomer, unassigned) [Example 61] gave a CC50 at 48 h of 15 µM. For the same compound, the EC50 in data set [2] amounted to 0.568 µM; in the data set on RSV strain A2, 0.855 µM. In data set [3], this compound displayed a CC50 at 4 days of 19.1 µM.

For the compound `CCOC(=O)[C@H](C)NP(=O)(OC[C@@]1(CF)O[C@@H](c2ccc3c(N)ncnn23)[C@H](O)[C@@H]1O)Oc1ccc(C(C)(C)C)cc1` (mixture of isomers) [Example 47, ethyl ((((2R,3S,4R,5S)-5-(4-aminopyrrolo[2,1-f][1,2,4]triazin-7-yl)-2-(fluoromethyl)-3,4-dihydroxytetrahydrofuran-2-yl)methoxy)(4-(tert-butyl)phenoxy)phosphoryl)-L-alaninate], in data set [1], the 50% cytotoxic concentration (CC50) at 48 h turned out to be 21.4 µM. In addition, the half-maximal effective concentration (EC50) came out at 0.65 µM in data set [2] and 0.389 µM with RSV strain A2. In data set [3], this compound displayed a CC50 at 4 days of 65.9 µM.

In data set [1], `CC(C)C(=O)O[C@H]1[C@H](c2ccc3c(N)ncnn23)O[C@](CF)(CO[P@@](=O)(N[C@@H](C)C(=O)OC2COC2)Oc2ccccc2)[C@H]1OC(=O)C(C)C` (single isomer, unassigned) [Example 73] returned a CC50 at 48 h of 9.34 µM. Moreover, the EC50 in data set [2] was 0.302 µM.

`CCC(CC)COC(=O)[C@H](C)N[P@](=O)(OC[C@@]1(CF)O[C@@H](c2ccc3c(N)ncnn23)[C@H](OC(=O)C(C)C)[C@@H]1OC(=O)C(C)C)Oc1ccccc1` (single isomer, unassigned) [Example 62] yielded a cytotoxic concentration (CC50) at 48 h in data set [1] of 8.09 µM. In addition, the results for the concentration for a half-maximal effect (EC50) (in data set [2]; with RSV strain A2) were 0.662 µM and 10.1 µM, respectively.
